Numbered stars: 1 amine (or outer) side, 2 acyl side, 3 side chain; on linkers, the order of the positions; unused ones are H or OH. Bridge positions count the residues as written; N and C are the ends. Square brackets hold non-standard residues; d marks the D form. Peptide text beside a SMILES is read from it. I, II: the chains in the order shown. * marks the point of attachment. Actinocin(9to1) = Cc1c2oc3c(C)ccc(C(=O)[*:1])c3nc-2c(C(=O)[*:2])c(N)c1=O; NMeV = CN[C@H](C(=O)O)C(C)C; Cbz = O=C(OCc1ccccc1)*; Sar = CNCC(=O)O; CH2F = FC*
What was measured:
ACSVL3 [1] = assay: Acyl-CoA synthetase activity of control vs ACSVL3-deficient U87 cells with candidate small molecule inhibitors; assay type: biochemical, human; settings: 80 μM drug; palmitic acid substrate; preliminary studies, FIG. 14
Description: Acyl-CoA synthetase assays. Activation of [1-^14C]palmitate (C16:0) or [1-^14C]lignocerate (C24:0) (Moravek Biochemicals, Brea Calif.) to their CoA derivatives was measured in frozen/thawed cell suspensions or post-nuclear supernatants of xenograft tissue homogenates as previously described (9, 19). Assays contained 15 or 60 μg cell or tissue protein for C16:0 and C24:0 fatty acid substrates, respectively.
For this study, we examined the effects of candidate small molecule inhibitors on the acyl-CoA synthetase activity of control U87 glioblastoma cells and ACSVL3-deficient U87 cells. The 16-carbon fatty acid, palmitic acid, was used as substrate. Drugs were solubilized in dimethylsulfoxide (DMSO, 10 mM) and diluted with phosphate-buffered saline (PBS, 0.8 mM) prior to their inclusion in enzyme assays; the final concentration of drug in the assay was 80 μM. Control incubations contained the vehicle, DMSO diluted in PBS, only. The assay measures the combined enzyme activity of all acyl-CoA synthetases found in U87 cells that are capable of using palmitic acid as substrate. A specific inhibitor of ACSVL3 is one in which there is partial inhibition of total cellular enzyme activity in control U87 cells (grey bars), but not in ACSVL3-deficient U87 cells (black bars).

ACSVL3 [2] = assay: ACSVL3 expression in U373 cells with transcription or translation inhibitor, without or with HGF; assay type: cell-based, human; settings: actinomycin D 20 μg/ml, cycloheximide 5 μM; for HGF-induced increase in ACSVL3 expression: HGF 6 hours
Description: We then investigated whether the increase in ACSVL3 protein in U373 cells was due to increased transcription of the ACSVL3 gene, or increased translation of ACSVL3 mRNA. U373 cells were incubated without or with HGF for 6 hours in the absence and presence of an inhibitor of transcription, actinomycin D, or the protein synthesis (translation) inhibitor, cycloheximide. Actinomycin D (20 μg/ml) and cycloheximide (5 μM) were added to the culture medium 16 and 8 hours, respectively, prior to the addition of HGF.

Akt = Akt signaling after HGF in control and ACSVL3 KD U87 cells (Western blot); assay type: cell-based, human; settings: HGF 20 ng/ml
Description: A & B. Effect of HGF treatment on Akt phosphorylation and stability. Control and ACSVL3-3 KD U87 cells were incubated with HGF (20 ng/ml) for the indicated time prior to analysis for total Akt and phospho-Akt levels by Western blot. A, LiCOR Odyssey images; control and KD images were obtained simultaneously. B, Quantitation of the LiCOR data. C. Effect of caspase inhibition on Akt stability. One control and two different knockdown clones produced using the ACSVL3-3 shRNA plasmid were incubated with HGF (20 ng/ml) for the indicated time in the absence or presence of the pan-caspase inhibitor, Z-VAD-FMK (50 μM), prior to analysis for total Akt and phospho-Akt levels by Western blot. […] Left, adherent growth was measured 11.5 days post-transfection as described in the legend to FIG. 4A. Right, anchorage-independent growth was measured by colony formation in soft agar on day 17 post-transfection as described in the legend to FIG. 4B. Mean±standard error is shown; statistical significance was determined by one-way ANOVA with Bonferroni's multiple comparison test. ***, p<0.001 vs. control vector; **, p<0.01 vs. control vector; n.s., p>0.05 vs. control myr-Akt.
Immunohistochemistry, immunofluorescence, and Western blotting. […] ACSVL3 was detected on Western blots with SuperSignal West Pico chemiluminescent substrate (Pierce Biotechnology, Rockford Ill.). […]

ACSVL3 [3] = assay: ACSVL3 expression in U87 glioma cells treated with HGF or EGF (Western blot); assay type: cell-based, human; settings: HGF 20 ng/ml or EGF 30 ng/ml, 16 hrs
Description: (§1) A. Human U87, U373, and Mayo-22 glioma cells were grown to ˜80% confluence. Cells were either untreated or incubated 16 hrs in the presence of HGF (20 ng/ml; gift from Genentech; South San Francisco Calif.) or EGF (30 ng/ml; Calbiochem/EMD; San Diego Calif.) before harvesting and Western blot analysis for ACSVL3 expression. Each lane contained 30 μg total cellular protein. Actin was detected as a loading control. The three sections were from the same Western blot; images were obtained simultaneously. B. U87 cells stably expressing constitutively active EGFR (EGFRvIII) or corresponding control U87 cells were harvested and analyzed by Western blot. Actin was detected as a loading control. C. Tumors were produced in the flanks of athymic nude mice (n=12) by s.c. injection (2 sites per mouse) of 4×10^6 U87 cells. When tumors size reached ˜300 mm^3 (day 14), animals were randomly divided into two groups of 6 mice. […]
(§2) Immunohistochemistry, immunofluorescence, and Western blotting. […] ACSVL3 was detected on Western blots with SuperSignal West Pico chemiluminescent substrate (Pierce Biotechnology, Rockford Ill.). Total and phospho-Akt (ser473) were detected with antibodies from BD Biosciences (San Jose Calif.) and Cell Signaling Technology (Danvers Mass.), respectively, and quantitated with the LiCOR Odyssey dual wavelength infrared system. Protein was determined by the method of Lowry et al. (16).

ACSVL3 [4] = assay: ACSVL3 expression in U373 glioma cells treated with HGF or EGF (Western blot); assay type: cell-based, human; settings: for ACSVL3 expression: HGF 20 ng/ml or EGF 30 ng/ml, 16 hrs
Description: A. Human U87, U373, and Mayo-22 glioma cells were grown to ˜80% confluence. Cells were either untreated or incubated 16 hrs in the presence of HGF (20 ng/ml; gift from Genentech; South San Francisco Calif.) or EGF (30 ng/ml; Calbiochem/EMD; San Diego Calif.) before harvesting and Western blot analysis for ACSVL3 expression. Each lane contained 30 μg total cellular protein. Actin was detected as a loading control. The three sections were from the same Western blot; images were obtained simultaneously. B. U87 cells stably expressing constitutively active EGFR (EGFRvIII) or corresponding control U87 cells were harvested and analyzed by Western blot. Actin was detected as a loading control. C. Tumors were produced in the flanks of athymic nude mice (n=12) by s.c. injection (2 sites per mouse) of 4×10^6 U87 cells. When tumors size reached ˜300 mm^3 (day 14), animals were randomly divided into two groups of 6 mice. One group received i.p. injection (100 μg/20 g body wt) of anti-HGF mAb (L2G7) and the other group received isotype control mAb (5G8) on days 14, 16, and 18. Mice were sacrificed on day 20. Tumor homogenates (50 μg protein) were subjected to Western blot analysis for ACSVL3 expression. Actin expression was used as a loading control.
Immunohistochemistry, immunofluorescence, and Western blotting. Immunohistochemical staining for ACSVL3 and ACSBG1, and immunofluorescence analysis of ACSVL3, were performed using affinity-purified antibodies as described (9, 15). ACSVL3 was detected on Western blots with SuperSignal West Pico chemiluminescent substrate (Pierce Biotechnology, Rockford Ill.). Total and phospho-Akt (ser473) were detected with antibodies from BD Biosciences (San Jose Calif.) and Cell Signaling Technology (Danvers Mass.), respectively, and quantitated with the LiCOR Odyssey dual wavelength infrared system. Protein was determined by the method of Lowry et al. (16).
Further characterization of induction of ACSVL3 expression in U373 cells. Human U373 glioma cells have low ACSVL3 expression unless treated with hepatocyte growth factor (HGF). […]

ACSVL3 [5] = assay: ACSVL3 expression in Mayo-22 glioma cells treated with HGF or EGF (Western blot); assay type: cell-based, human; settings: Mayo 22 cells; HGF 20 ng/ml or EGF 30 ng/ml, 16 hrs
Description: as §1, §2

## CN(C)CCCN1c2ccccc2Sc2ccc(C(F)(F)F)cc21 [Triflupromazine]
ACSVL3 [1]
  inhibition of acyl-CoA synthetase activity in control vs ACSVL3-deficient U87 cells (specificity for ACSVL3): exhibited specificity for ACSVL3

## Cc1c2oc3c(C)ccc(C(=O)N[C@@H]4C(=O)N[C@H](C(C)C)C(=O)N5CCC[C@H]5C(=O)N(C)CC(=O)N(C)[C@@H](C(C)C)C(=O)O[C@@H]4C)c3nc-2c(C(=O)N[C@@H]2C(=O)N[C@H](C(C)C)C(=O)N3CCC[C@H]3C(=O)N(C)CC(=O)N(C)[C@@H](C(C)C)C(=O)O[C@@H]2C)c(N)c1=O [actinomycin D] (I: T[dV]P[Sar][NMeV] / II: T[dV]P[Sar][NMeV]; ester I:1-I:C, II:1-II:C; linker I:N-II:N via Actinocin(9to1))
ACSVL3 [2]
  HGF-induced increase in ACSVL3 expression: blocked the HGF-induced increase in ACSVL3 expression
  ACSVL3 expression in the absence of HGF: neither actinomycin D nor cycloheximide affected ACSVL3 expression

## CN(C)CCCN1c2ccccc2Sc2ccc(Cl)cc21 [chlorpromazine]
ACSVL3 [1]
  inhibition of acyl-CoA synthetase activity in control vs ACSVL3-deficient U87 cells (specificity for ACSVL3): exhibited specificity for ACSVL3

## C[C@@H]1C[C@@H]([C@H](O)CC2CC(=O)NC(=O)C2)C(=O)[C@@H](C)C1 [cycloheximide]
ACSVL3 [2]
  HGF-induced increase in ACSVL3 expression: blocked the HGF-induced increase in ACSVL3 expression
  ACSVL3 expression in the absence of HGF: neither actinomycin D nor cycloheximide affected ACSVL3 expression

## Cc1cc(O)c2c(c1)C(=O)c1cc(O)cc(O)c1C2=O [emodin]
ACSVL3 [1]
  inhibition of acyl-CoA synthetase activity in control vs ACSVL3-deficient U87 cells (specificity for ACSVL3): inhibit enzyme activity similarly in both control and ACSVL3-deficient U87 cells

## OCCN1CCN(CC/C=C2/c3ccccc3Sc3ccc(C(F)(F)F)cc32)CC1 [flupenthixol]
ACSVL3 [1]
  inhibition of acyl-CoA synthetase activity in control vs ACSVL3-deficient U87 cells (specificity for ACSVL3): inhibit both control and ACSVL3-deficient cells, but show greater inhibition in control U87 cells

## O=C1NCN(c2ccccc2)C12CCN(CCCC(c1ccc(F)cc1)c1ccc(F)cc1)CC2 [fluspirilene]
ACSVL3 [1]
  inhibition of acyl-CoA synthetase activity in control vs ACSVL3-deficient U87 cells (specificity for ACSVL3): inhibit enzyme activity similarly in both control and ACSVL3-deficient U87 cells

## OCCN1CCN(CCCN2c3ccccc3Sc3ccc(Cl)cc32)CC1 [perphenizine]
ACSVL3 [1]
  inhibition of acyl-CoA synthetase activity in control vs ACSVL3-deficient U87 cells (specificity for ACSVL3): exhibited specificity for ACSVL3

## Nc1ccc(/N=N/c2ccccc2)c(N)n1 [phenazopyridine]
ACSVL3 [1]
  inhibition of acyl-CoA synthetase activity in control vs ACSVL3-deficient U87 cells (specificity for ACSVL3): inhibit enzyme activity similarly in both control and ACSVL3-deficient U87 cells

## CC(CN1c2ccccc2Sc2ccccc21)N(C)C (stereo not shown) [promethazine]
ACSVL3 [1]
  inhibition of acyl-CoA synthetase activity in control vs ACSVL3-deficient U87 cells (specificity for ACSVL3): inhibit enzyme activity similarly in both control and ACSVL3-deficient U87 cells

## CN1CCN(CCCN2c3ccccc3Sc3ccc(C(F)(F)F)cc32)CC1 [trifluperazine]
ACSVL3 [1]
  inhibition of acyl-CoA synthetase activity in control vs ACSVL3-deficient U87 cells (specificity for ACSVL3): inhibit both control and ACSVL3-deficient cells, but show greater inhibition in control U87 cells

## Cbz-Val-Ala-Asp-CH2F
Akt; ACSVL3 KD U87 cells, Z-VAD-FMK 50 μM
  Akt response to HGF stimulation under caspase inhibition: normalized the Akt response to HGF stimulation

## EGF: EGFR ligand, epidermal growth factor
ACSVL3 [3]
  ACSVL3 expression: not increased above its high basal expression levels
ACSVL3 [4]
  ACSVL3 expression: increased ACSVL3 expression
ACSVL3 [5]
  ACSVL3 expression: increased ACSVL3 expression

## HGF: Hepatocyte growth factor, c-Met agonist
Akt; control-transfected U87 glioma cells
  Akt phosphorylation (Ser-473): increased rapidly and remained elevated for up to two hours
ACSVL3 [3]
  ACSVL3 expression: not increased above its high basal expression levels
ACSVL3 [4]; FIG. 12
  time course of induction of ACSVL3 protein: increased in U373 cells as early as 2 hours
ACSVL3 [4]
  ACSVL3 expression: induce ACSVL3 expression levels
ACSVL3 [5]
  ACSVL3 expression: induce ACSVL3 expression levels
